The results in this text go back to patent publication US5958945A, “Naphthamide derivatives of 3-beta-amino azabicyclo octane or nonane as neuroleptic agents” (Pierre Fabre Medicament, priority 1995, dated 1999).

Counter-ions that a name gives are not always drawn.

The target in one assay is D2 receptor. Nature of the assay: Binding: displacement of [^3 H] YM-09151-2 (D2 site). Particulars: Ligand [^3 H] YM09151-2. The text has this:
(§1) This process for studying specific binding is described Naunyn-Schmiedeberg's Arch. Pharmacol. 329, 333-338, 1985 and Mol. Pharmacol. 21, 301-314, 1982.

A further assay concerns the target 5-HT2 receptor (Rattus norvegicus, UniProt P14842). The assay can be described thus: Binding: displacement of [^3 H] Ketanserine (5-HT2 site). Particulars: compared with the reference substances.
Description: as §1

5-HT2 receptor, sequence (P14842 whole entry): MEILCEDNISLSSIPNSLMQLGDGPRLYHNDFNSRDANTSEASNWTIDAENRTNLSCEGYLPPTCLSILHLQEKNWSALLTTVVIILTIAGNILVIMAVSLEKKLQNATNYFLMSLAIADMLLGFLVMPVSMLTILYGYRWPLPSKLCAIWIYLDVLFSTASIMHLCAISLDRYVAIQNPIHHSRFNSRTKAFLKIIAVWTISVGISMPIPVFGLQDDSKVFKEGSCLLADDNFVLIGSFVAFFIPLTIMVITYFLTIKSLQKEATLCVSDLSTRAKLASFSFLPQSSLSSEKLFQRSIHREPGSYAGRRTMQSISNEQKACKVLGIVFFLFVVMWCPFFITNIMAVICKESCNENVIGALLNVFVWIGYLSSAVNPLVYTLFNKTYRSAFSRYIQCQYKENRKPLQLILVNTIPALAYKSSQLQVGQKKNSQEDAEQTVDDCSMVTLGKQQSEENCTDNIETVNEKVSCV

In turn, `COc1c(C(=O)N[C@@H]2C[C@H]3CC[C@@H](C2)N3Cc2ccccc2)ccc2ccccc12` [Example 3, 1-Methoxy-N-[8-(phenylmethyl)-8-azabicyclo[3.2.1]oct-3-β-yl]-2-naphthalenecarboxamide] came in with a Ki on D2 receptor of 0.143 nM.

On to `COc1c(C(=O)N[C@@H]2C[C@H]3CC[C@@H](C2)N3Cc2ccccc2)cc(Br)c2ccccc12` [Example 4, 4-Bromo-1-methoxy-N-[8-(phenylmethyl)-8-azabicyclo[3.2.1]oct-3-β-yl]-2-naphthalenecarboxamide oxalate], for which the affinity at D2 receptor, expressed as Ki, was 0.776 nM.

On to `COc1c(C(=O)N[C@@H]2C[C@H]3CC[C@@H](C2)N3Cc2ccccc2)cc(Cl)c2ccccc12` [Example 5, 4-Chloro-1-methoxy-N-[8-(phenylmethyl)-8-azabicyclo[3.2.1]oct-3-β-yl)-2-naphthalenecarboxamide hydrochloride], for which the Ki on D2 receptor turned out to be 0.408 nM.

On D2 receptor, `CCOc1c(C(=O)N[C@@H]2C[C@H]3CC[C@@H](C2)N3Cc2ccccc2)cc(Br)c2ccccc12` [Example 13, 4-Bromo-1-ethoxy-N-[8-(phenylmethyl)-8-azabicyclo[3.2.1]oct-3-β-yl]-2-naphthalenecarboxamide hydrochloride] came in with a Ki of 0.944 nM.

Turning to `COc1c(C(=O)NC2CCN(Cc3ccccc3)CC2)ccc2ccccc12` [Patent EP 539,281 compound], the “affinity for the 5-HT2 receptor (in words)” value at 5-HT2 receptor is “little or no 5-HT2 affinity”. The inhibition constant Ki at D2 receptor amounted to 3.32 nM.

`CCN1CCCC1CNC(=O)c1cc(S(N)(=O)=O)ccc1OC` (stereo not drawn) [Sulpiride] gave a Ki at D2 receptor of 4.63 nM.

On to `COc1cccc(C(=O)N[C@@H]2C[C@H]3CC[C@@H](C2)N3Cc2ccccc2)c1OC` [Tropapride], for which the “affinity for the 5-HT2 receptor (in words)” value at 5-HT2 receptor was “little or no 5-HT2 affinity”. In addition, the inhibition constant (Ki) at D2 receptor came out at 0.106 nM.

Usually Ki stands for the dissociation constant of the complex between target and ligand, obtained from inhibition or displacement. Low values mean a stronger hold on the target, high ones a looser hold on the target.
